Entries after “also recorded” stand apart in the source; their conditions may differ. Marks after values point to notes of the source that are not given here. *1 amine or outer side, *2 acyl side, *3 side chain or, on linkers, in order; H or OH if unused. Where no end group is shown, it is not given here. [ ]: non-standard residue; d: D form. γGlu = O=C(O)[C@H](CCC(=O)[*:2])N[*:1]

Experiment [1] in a line: Sensory evaluation of body taste-imparting effect of γ-glutamyl peptides in umami solution and sweet taste solution (Example 2). To be noted: for Initial-middle taste / Middle-after taste: average score of 7 trained panelists, 5 levels, control = 3 points; for body taste of from the initial taste to middle taste (in words) / persistence of the aftertaste (in words) / taste from the middle taste to aftertaste (in words): umami and sweet taste solutions, summary of Table 1. As for the experimental part:
Umami solution containing 0.7% MSG-0.4% NaCl and Sweet taste solution containing 6% sucrose were used as controls (3 points). And, sample solution was prepared by adding each γ-glutamyl peptide to the control. As comparative controls, γ-Glu-Val-Gly disclosed in Patent Document 1 and Patent Document 6 were used. The panelists were 7 trained panelists at Fuji Oil Holdings Inc. And, the panelist evaluated a body taste of from initial taste to middle taste, a thickness of from middle taste to aftertaste, and persistence with the following five levels.
(§1) 5 points: feels much stronger than the control 4 points: feels stronger than the control 3 points: feels the same as the control 2 points: feels a little weaker than the control 1 point: feels much weaker than the control

Experiment [2] is described as follows: Sensory evaluation of body taste-imparting effect on sweet taste solution (Example 3). To be noted: Sweet taste solution (6% sucrose), 100 ppm peptide; for Initial-middle taste: average score of eight trained panelists, 5 levels, control = 3 points; for body taste-imparting effect (in words): summary of FIG. 3 and Table 2. As for the experimental part: Sweet taste solution containing 6% sucrose was used as a control (3 points). And, sample solution was prepared by adding 100 ppm of each γ-glutamyl tripeptide to the control. As comparative controls, γ-Glu-γ-Glu-Val and γ-Glu-γ-Glu-α-Glu-Tyr were used. The panelists were eight trained panelists at Fuji Oil Holdings Inc. And, the panelist evaluated a body taste of from initial taste to middle taste with the following five levels.
as §1

The mark [3] stands for this setting: Sweet taste solution (6% sucrose).
[4] abbreviates: Umami solution (0.7% MSG-0.4% NaCl).

As to [γGlu]-Tyr [reference compound], in experiment [1] (setting [3]), the Initial-middle taste came out at 3.5 points and the Middle-after taste is reported as 3.9* points. In experiment [1] (setting [4]), the Initial-middle taste is 3.5 points and the Middle-after taste is on record as 3.9* points. Also, in experiment [1], the “body taste of from the initial taste to middle taste (in words)” value (“body taste of from the initial taste” below) was “imparted little body taste”, the “persistence of the aftertaste (in words)” value is on record as “persistent of the strong aftertaste” and the “taste from the middle taste to aftertaste (in words)” value is on record as “strong”.
As to [γGlu]-Val-Gly [reference compound], in experiment [1] (setting [3]), the Initial-middle taste came out at 3.6 points and the Middle-after taste is reported as 4.3* points. In addition, in experiment [1] (setting [4]), the Initial-middle taste is 3.6 points and the Middle-after taste is 4.8* points. Also, in experiment [1], the “body taste of from the initial taste” value is recorded as “imparted little body taste”, the “persistence of the aftertaste (in words)” value was “persistent of the strong aftertaste” and the “taste from the middle taste to aftertaste (in words)” value is listed as “strong”.
For [γGlu]-[γGlu]-Tyr, in experiment [1] (setting [3]), the Initial-middle taste is reported as 4.0* points and the Middle-after taste is 3.7* points. Also, in experiment [1] (setting [4]), the Initial-middle taste was 4.0* points and the Middle-after taste is on record as 3.9* points. Further, in experiment [1], the “body taste of from the initial taste” value is reported as “imparted the body taste overall” and the “persistence of the aftertaste (in words)” value is “suppressed”.
In the case of [γGlu]-[γGlu]-Val, in experiment [2], the Initial-middle taste was found to be 3.1 points.
As to [γGlu][γGlu]EY, in experiment [2], the Initial-middle taste is 3.4 points and the “body taste-imparting effect (in words)” value is recorded as “an effect was also observed”.
As for [γGlu][γGlu][γGlu]A, in experiment [2], the Initial-middle taste is 3.4 points and the “body taste-imparting effect (in words)” value is “particularly effective”.
As for [γGlu][γGlu][γGlu]C, the Initial-middle taste in experiment [2] is 3.0 points.
On to [γGlu][γGlu][γGlu]D, for which, in experiment [2], the Initial-middle taste was 3.4 points and the “body taste-imparting effect (in words)” value is on record as “particularly effective”.
In the same order, the values of [γGlu][γGlu][γGlu]E are 3.5* points and “particularly effective”.
In the same order, the values of [γGlu][γGlu][γGlu]F are 3.4 points and “particularly effective”.
On to [γGlu][γGlu][γGlu]G, for which, in experiment [2], the Initial-middle taste turned out to be 3.1 points.
Take [γGlu][γGlu][γGlu]H: in experiment [2], the Initial-middle taste was 3.5* points and the “body taste-imparting effect (in words)” value is on record as “particularly effective”.
In the same order, the values of [γGlu][γGlu][γGlu]I are 3.4 points and “particularly effective”.
For the substance [γGlu][γGlu][γGlu]K, in experiment [2], the Initial-middle taste amounted to 3.1 points.
Regarding [γGlu][γGlu][γGlu]L, in experiment [2], the Initial-middle taste amounted to 3.3 points and the “body taste-imparting effect (in words)” value is given as “particularly effective”.
[γGlu][γGlu][γGlu]M: the Initial-middle taste in experiment [2] was 3.0 points.
Still for that read-out and setting: in the case of [γGlu][γGlu][γGlu]N it was 3.3 points.
For [γGlu][γGlu][γGlu]P, in experiment [2], the Initial-middle taste turned out to be 3.1 points.
As to [γGlu][γGlu][γGlu]Q, the Initial-middle taste in experiment [2] stood at 3.3 points.
Take [γGlu][γGlu][γGlu]R: in experiment [2], the Initial-middle taste is given as 4.1** points and the “body taste-imparting effect (in words)” value is given as “particularly effective”.
As to [γGlu][γGlu][γGlu]S, in experiment [2], the Initial-middle taste came to 3.4 points and the “body taste-imparting effect (in words)” value was “particularly effective”.
For [γGlu][γGlu][γGlu]T, the Initial-middle taste in experiment [2] amounted to 2.9 points.
With [γGlu][γGlu][γGlu]V, in experiment [2], the Initial-middle taste is reported as 3.4 points and the “body taste-imparting effect (in words)” value is “particularly effective; also recorded: superior to γ-Glu-γ-Glu-Val”.
Substance [γGlu][γGlu][γGlu]W displayed an Initial-middle taste in experiment [2] of 3.1 points.
For [γGlu][γGlu][γGlu]Y, in experiment [2], the Initial-middle taste is 4.3** points and the “body taste-imparting effect (in words)” value is on record as “particularly effective”. For the same substance, in experiment [1] (setting [3]), the Initial-middle taste is 4.3* points and the Middle-after taste was 4.3* points. Besides, in experiment [1] (setting [4]), the Initial-middle taste is 4.1* points and the Middle-after taste is given as 4.0* points. Moreover, in experiment [1], the “body taste of from the initial taste” value was “imparted the body taste overall” and the “persistence of the aftertaste (in words)” value is “suppressed”.
For the substance [γGlu][γGlu][γGlu][γGlu]Y, the Initial-middle taste in experiment [1] (setting [3]) and in experiment [1] (setting [4]) was 3.9* points throughout. Moreover, the Middle-after taste was 3.6 points in experiment [1] (setting [3]) and 3.7 points in experiment [1] (setting [4]). Further, the “body taste of from the initial taste” value in experiment [1] was “sufficiently imparted a body taste”.

Source of the values: patent publication US20200178586A1, “PEPTIDE” (FUJI OIL HOLDINGS INC., priority 2017, published 2020).
